Counter-ions that a name gives are not always drawn.
The molecules below were run against T1, VEGFR/KDR (Homo sapiens, UniProt P35968) (assay: VEGFR/KDR kinase inhibition, DELFIA assay). Conditions: ATP 0.6 uM (2x Km), enzyme 5 nM.
T1 construct: made in house; host or cells: Sf9 cells (Spodoptera frugiperda), baculovirus
Type: biochemical
Procedure, shortened: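 Enzyme (5 nM) pre-incubated 4 min on ice with inhibitor and Mg-ATP (0.6 uM, 2× Km), then reacted 10-30 min at 30° C on immobilized poly(Glu4,Tyr). EDTA-quenched phosphotyrosine detected with Europium-labeled antibody by time-resolved fluorescence; IC50 from concentration series.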

T1 sequence (P35968 806-1356): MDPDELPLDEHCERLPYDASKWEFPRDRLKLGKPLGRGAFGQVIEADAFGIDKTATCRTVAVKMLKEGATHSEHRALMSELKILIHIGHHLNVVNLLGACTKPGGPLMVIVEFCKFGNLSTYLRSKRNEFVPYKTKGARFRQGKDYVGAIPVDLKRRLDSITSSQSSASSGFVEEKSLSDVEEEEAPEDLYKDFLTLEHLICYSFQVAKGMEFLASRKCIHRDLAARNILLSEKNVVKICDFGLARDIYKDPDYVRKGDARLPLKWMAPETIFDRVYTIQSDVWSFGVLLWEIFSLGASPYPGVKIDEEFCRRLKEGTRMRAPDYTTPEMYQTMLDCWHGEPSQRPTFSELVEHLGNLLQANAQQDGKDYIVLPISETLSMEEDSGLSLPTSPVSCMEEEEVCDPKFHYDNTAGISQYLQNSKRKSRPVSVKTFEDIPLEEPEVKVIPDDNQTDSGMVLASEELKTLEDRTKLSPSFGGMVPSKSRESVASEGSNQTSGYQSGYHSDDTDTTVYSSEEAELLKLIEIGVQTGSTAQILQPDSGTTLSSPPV

For `O=C(Nc1ccc(Oc2ccnc3cc(-c4ccc(C(=O)N5CCN(CCN6CCOCC6)CC5)cn4)sc23)c(F)c1)NC1CC1` [Compound 231, 1-cyclopropyl-3-(3-fluoro-4-(2-(5-(4-(2-morpholinoethyl)piperazine-1-carbonyl)pyridin-2-yl)thieno[3,2-b]pyridin-7-yloxy)phenyl)urea], which IC50 is on record?
The IC50 was under 50 nM.

With `CN1CCN(CCNC(=O)c2ccc(-c3cc4nccc(Oc5ccc(NC(=O)NC6CC6)cc5F)c4s3)nc2)CC1` [Compound 233, 6-(7-(4-(3-cyclopropylureido)-2-fluorophenoxy)thieno[3,2-b]pyridin-2-yl)-N-(2-(4-methylpiperazin-1-yl)ethyl)nicotinamide formate salt] as the molecule, how does the IC50 read?
The IC50 was under 50 nM.

With `O=C(Nc1ccc(Oc2ccnc3cc(-c4ccc(C(=O)NCCN5CCOCC5)cn4)sc23)c(F)c1)NC1CC1` [Compound 235, 6-(7-(4-(3-cyclopropylureido)-2-fluorophenoxy)thieno[3,2-b]pyridin-yl)-N-(2-morpholinoethyl)nicotinamide] as the molecule, how does the IC50 read?
Its IC50 is under 50 nM.

With `CCOC(=O)CCN1CCN(C(=O)c2ccc(-c3cc4nccc(Oc5ccc(NC(=O)NC6CC6)cc5F)c4s3)nc2)CC1` [Compound 236, ethyl 3-(4-(6-(7-(4-(3-cyclopropylureido)-2-fluorophenoxy)thieno-[3,2-b]pyridin-2-yl)nicotinoyl)piperazin-1-yl)propanoate] as the molecule, how does the IC50 read?
Its IC50 is under 50 nM.

For `CCOC(=O)C1CCCN(C(=O)c2ccc(-c3cc4nccc(Oc5ccc(NC(=O)NC6CC6)cc5F)c4s3)nc2)C1` (stereo not drawn) [Compound 237, ethyl 1-(6-(7-(4-(3-cyclopropylureido)-2-fluorophenoxy)thieno-[3,2-b]pyridin-2-yl)nicotinoyl)piperidine-3-carboxylate], which IC50 is on record?
Its IC50 is under 50 nM.

How did the IC50 turn out when `CCCCOC(=O)C1CN(C(=O)c2ccc(-c3cc4nccc(Oc5ccc(NC(=O)NC6CC6)cc5F)c4s3)nc2)CCO1` (stereo not drawn) [Compound 238, butyl 4-(6-(7-(4-(3-cyclopropylureido)-2-fluorophenoxy)thieno[3,2-b]pyridin-2-yl)nicotinoyl)morpholine-2-carboxylate] was run?
The IC50 was under 50 nM.

For `O=C(O)CCN1CCN(C(=O)c2ccc(-c3cc4nccc(Oc5ccc(NC(=O)NC6CC6)cc5F)c4s3)nc2)CC1` [Compound 239, 3-(4-(6-(7-(4-(3-cyclopropylureido)-2-fluorophenoxy)thieno[3,2-b]pyridin-2-yl)nicotinoyl)piperazin-1-yl)propanoic acid tetraacetate], which IC50 is on record?
The IC50 was under 50 nM.

How did the IC50 turn out when `O=C(Nc1ccc(Oc2ccnc3cc(-c4ccc(C(=O)N5CCCC(C(=O)O)C5)cn4)sc23)c(F)c1)NC1CC1` (stereo not drawn) [Compound 240, 1-(6-(7-(4-(3-cyclopropylureido)-2-fluorophenoxy)thieno[3,2-b]-pyridin-2-yl)nicotinoyl)piperidine-3-carboxylic acid] was run?
The IC50 was under 50 nM.

Which IC50 does the source give for `O=C(Nc1ccc(Oc2ccnc3cc(-c4ccc(C(=O)N5CCOC(C(=O)O)C5)cn4)sc23)c(F)c1)NC1CC1` (stereo not drawn) [Compound 241, 4-(6-(7-(4-(3-cyclopropylureido)-2-fluorophenoxy)thieno[3,2-b]-pyridin-2-yl)nicotinoyl)morpholine-2-carboxylic acid] here?
The IC50 was under 50 nM.

With `COCCNCCn1cc(-c2cc3nccc(Oc4ccc(NC(=O)NC5CC5)cc4F)c3s2)cn1` [Compound 247, 1-cyclopropyl-3-(3-fluoro-4-(2-(1-(2-(2-methoxyethylamino)ethyl)-1H-pyrazol-4-yl)thieno[3,2-b]pyridin-7-yloxy)phenyl)urea] as the molecule, how does the IC50 read?
Its IC50 is under 50 nM.

For `COCCN(CCn1cc(-c2cc3nccc(Oc4ccc(NC(=O)NC5CC5)cc4F)c3s2)cn1)C(C)=O` [Compound 254, N-(2-(4-(7-(4-(3-cyclopropylureido)-2-fluorophenoxy)thieno[3,2-b]pyridine-2-yl)-1H-pyrazol-1-yl)ethyl)-N-(2-methoxyethyl)acetamide], which IC50 is on record?
The IC50 was under 50 nM.

With `COCCN(CCn1cnc(-c2cc3nccc(Oc4ccc(NC(=O)NC5CC5)cc4F)c3s2)c1)C(C)=O` [Compound 254-A, N-(2-(4-(7-(4-(3-cyclopropylureido)-2-fluorophenoxy)-thieno[3,2-b]pyridin-2-yl)-1H-imidazol-1-yl)ethyl)-N-(2-methoxyethyl)acetamide] as the molecule, how does the IC50 read?
The IC50 was under 50 nM.

How did the IC50 turn out when `CCNC(=O)N(CCOC)CCn1cc(-c2cc3nccc(Oc4ccc(NC(=O)NC5CC5)cc4F)c3s2)cn1` [Compound 255, N-(2-(4-(7-(4-(3-cyclopropylureido)-2-fluorophenoxy)thieno[3,2-b]-pyridine-2-yl)-1H-pyrazol-1-yl)ethyl)-N-(1-ethyl)-N-[3-(2-methoxyethyl)]urea] was run?
Its IC50 is 50 to 100 nM.

`CCNC(=O)N(CCOC)CCn1cnc(-c2cc3nccc(Oc4ccc(NC(=O)NC5CC5)cc4F)c3s2)c1` [Compound 256, N-(2-(4-(7-(4-(3-cyclopropylureido)-2-fluorophenoxy)thieno[3,2-b]-pyridin-2-yl)-1H-imidazol-1-yl)ethyl)-N-(1-ethyl)-N-[3-(2-methoxyethyl)]urea] was tested. Which IC50 did it give?
The IC50 was under 50 nM.

How did the IC50 turn out when `COCCN(CCn1cc(-c2cc3nccc(Oc4ccc(NC(=O)NC5CC5)cc4F)c3s2)cn1)C(=O)CO` [Compound 257, N-(2-(4-(7-(4-(3-cyclopropylureido)-2-fluorophenoxy)thieno[3,2-b]-pyridin-2-yl)-1H-pyrazol-1-yl)ethyl)-2-hydroxy-N-(2-methoxyethyl)acetamide] was run?
Its IC50 is under 50 nM.

For `COCCN(CCn1cnc(-c2cc3nccc(Oc4ccc(NC(=O)NC5CC5)cc4F)c3s2)c1)C(=O)CO` [Compound 258, N-(2-(4-(7-(4-(3-cyclopropylureido)-2-fluorophenoxy)thieno[3,2-b]-pyridin-2-yl)-1H-imidazol-1-yl)ethyl)-2-hydroxy-N-(2-methoxyethyl)acetamide], which IC50 is on record?
The IC50 was under 50 nM.

How did the IC50 turn out when `COCCOCCOCCOCCN(Cc1ccc(-c2cc3nccc(Oc4ccc(NC(=O)NC5CC5)c(F)c4F)c3s2)nc1)C(=O)CO` [Compound 259, N-((6-(7-(4-(3-cyclopropylureido)-2,3-difluorophenoxy)thieno-[3,2-b]pyridin-2-yl)pyridin-3-yl)methyl)-2-hydroxy-N-(2,5,8,11-tetraoxatridecan-13-yl)acetamide] was run?
Its IC50 is under 50 nM.

How did the IC50 turn out when `COCCN(Cc1ccc(-c2cc3nccc(Oc4ccc(NC(=O)NC5CC5)c(F)c4F)c3s2)nc1)C(=O)CO` [Compound 259-A, N-((6-(7-(4-(3-cyclopropylureido)-2,3-difluorophenoxy)thieno[3,2-d]pyridin-2-yl)pyridin-3-yl)methyl)-2-hydroxy-N-(2-methoxyethyl)acetamide] was run?
Its IC50 is under 50 nM.

Which IC50 does the source give for `CN1CCN(CCn2cnc(-c3cc4nccc(Oc5ccc(NC(=O)NC6CC6)cc5F)c4s3)c2)CC1` [Compound 266, 1-Cyclopropyl-3-(3-fluoro-4-(2-(1-(2-(4-methylpiperazin-1-yl)ethyl)-1H-imidazol-4-yl)thieno[3,2-b]pyridin-7-yloxy)phenyl)urea] here?
The IC50 was under 50 nM.

`O=C(Nc1ccc(Oc2ccnc3cc(-c4cn(CCN5CCCC5=O)cn4)sc23)c(F)c1)NC1CC1` [Compound 267, 1-cyclopropyl-3-(3-fluoro-4-(2-(1-(2-(2-oxopyrrolidin-1-yl)ethyl)-1H-imidazol-4-yl)thieno[3,2-b]pyridin-7-yloxy)phenyl)urea] was tested. Which IC50 did it give?
Its IC50 is under 50 nM.

With `O=C(Nc1ccc(Oc2ccnc3cc(C4=CCNCC4)sc23)c(F)c1)NC1CC1` [Compound 271-A, 1-Cyclopropyl-3-(3-fluoro-4-(2-(1,2,3,6-tetrahydropyridin-4-yl)thieno[3,2-b]pyridin-7-yloxy)phenyl)urea] as the molecule, how does the IC50 read?
Its IC50 is 50 to 100 nM.

With `O=C(O)CCC(=O)N1CC=C(c2cc3nccc(Oc4ccc(NC(=O)NC5CC5)cc4F)c3s2)CC1` [Compound 273, 4-(4-(7-(4-(3-cyclopropylureido)-2-fluorophenoxy)thieno[3,2-b]pyridin-2-yl)-5,6-dihydropyridin-1(2H)-yl)-4-oxobutanoic acid] as the molecule, how does the IC50 read?
Its IC50 is at least 250 nM.

With `COCCOCC(=O)N1CC=C(c2cc3nccc(Oc4ccc(NC(=O)NC5CC5)cc4F)c3s2)CC1` [Compound 274] as the molecule, how does the IC50 read?
Its IC50 is under 50 nM.

Which IC50 does the source give for `CS(=O)(=O)N1CC=C(c2cc3nccc(Oc4ccc(NC(=O)NC5CC5)cc4F)c3s2)CC1` [Compound 275, 1-cyclopropyl-3-(3-fluoro-4-(2-(1-(methylsulfonyl)-1,2,3,6-tetrahydropyridin-4-yl)thieno[3,2-b]pyridin-7-yloxy)phenyl)urea] here?
The IC50 was under 50 nM.

Which IC50 does the source give for `O=C(Nc1ccc(Oc2ccnc3cc(C4=CCN(CCCN5CCOCC5)CC4)sc23)c(F)c1)NC1CC1` [Compound 276, 1-cyclopropyl-3-(3-fluoro-4-(2-(1-(3-morpholinopropyl)-1,2,3,6-tetrahydropyridin-4-yl)thieno[3,2-b]pyridin-7-yloxy)phenyl)urea] here?
The IC50 was 50 to 100 nM.

Which IC50 does the source give for `O=C(Nc1ccc(Oc2ccnc3cc(C4=CCN(CCCCO)CC4)sc23)c(F)c1)NC1CC1` [Compound 277, 1-cyclopropyl-3-(3-fluoro-4-(2-(1-(4-hydroxybutyl)-1,2,3,6-tetrahydropyridin-4-yl)thieno[3,2-b]pyridin-7-yloxy)phenyl)urea] here?
Its IC50 is 100 to 250 nM.

`O=C(Nc1ccc(Oc2ccnc3cc(-c4ccc(CN5CCCC5=O)nc4)sc23)c(F)c1)NC1CC1` [Compound 283, 1-cyclopropyl-3-(3-fluoro-4-(2-(6-((2-oxopyrrolidin-1-yl)methyl)pyridin-3-yl)thieno[3,2-b]pyridin-7-yloxy)phenyl)urea] was tested. Which IC50 did it give?
Its IC50 is under 50 nM.

With `O=C(Nc1ccc(Oc2ccnc3cc(-c4ccc(CCN5CCCC5=O)cn4)sc23)c(F)c1)NC1CC1` [Compound 295, 1-cyclopropyl-3-(3-fluoro-4-(2-(5-(2-(2-oxopyrrolidin-1-yl)ethyl)pyridin-2-yl)thieno[3,2-b]pyridin-7-yloxy)phenyl)urea] as the molecule, how does the IC50 read?
The IC50 was under 50 nM.

Which IC50 does the source give for `Cn1c(CN2CCOCC2)cnc1-c1cc2nccc(Oc3ccc(NC(=O)NC4CC4)cc3F)c2s1` [Compound 298] here?
The IC50 was under 50 nM.

How did the IC50 turn out when `CC(C)NC(=O)Nc1ccc(Oc2ccnc3cc(-c4ncc(CN5CCOCC5)n4C)sc23)c(F)c1` [Compound 299, 1-(3-fluoro-4-(2-(1-methyl-5-(morpholinomethyl)-1H-imidazol-2-yl)thieno[3,2-b]pyridin-7-yloxy)phenyl)-3-isopropylurea] was run?
Its IC50 is under 50 nM.
